Laboratory results from the CheMixHub ionic liquid set.
± gives the uncertainty stated by the source.

Assay: xn = mol fraction of the nth substance listed

CCCCCCCCCCCC[N+](C)(C)Cc1ccccc1.[Cl-] + O
electrical conductivity [S/m], 101 kPa
Details	293.15 K	298.15 K	303.15 K	308.15 K	313.15 K
x1 = 5.874e-05	0.0232 ± 0.0015	0.0261 ± 0.0016	0.0289 ± 0.0018	0.0318 ± 0.002	0.0349 ± 0.0022
x1 = 8e-05	0.0313 ± 0.002	0.0351 ± 0.0022	0.0389 ± 0.0025	0.0428 ± 0.0027	0.0469 ± 0.003
x1 = 9.982e-05	0.0388 ± 0.0024	0.0434 ± 0.0027	0.0481 ± 0.003	0.053 ± 0.0033	0.0579 ± 0.0037
x1 = 0.0001187	0.0459 ± 0.0029	0.0513 ± 0.0032	0.0569 ± 0.0036	0.0626 ± 0.0039	0.0686 ± 0.0043
x1 = 0.0001384	0.0531 ± 0.0033	0.0594 ± 0.0037	0.0658 ± 0.0041	0.0724 ± 0.0045	0.0792 ± 0.005
x1 = 0.0001594	0.0603 ± 0.0037	0.0673 ± 0.0042	0.0744 ± 0.0046	0.0819 ± 0.0051	0.0899 ± 0.0056
x1 = 0.000182	0.0659 ± 0.004	0.0734 ± 0.0045	0.0812 ± 0.005	0.0897 ± 0.0055	0.0989 ± 0.0061
x1 = 0.0002056	0.0702 ± 0.0043	0.0783 ± 0.0048	0.087 ± 0.0053	0.0963 ± 0.0059	0.106 ± 0.0065
x1 = 0.0002284	0.0741 ± 0.0045	0.0827 ± 0.005	0.092 ± 0.0056	0.102 ± 0.0062	0.113 ± 0.0069
x1 = 0.0002522	0.0778 ± 0.0047	0.0871 ± 0.0053	0.0969 ± 0.0059	0.108 ± 0.0066	0.12 ± 0.0073
x1 = 0.0002717	0.0809 ± 0.0049	0.0906 ± 0.0055	0.101 ± 0.0062	0.113 ± 0.0069	0.125 ± 0.0076
x1 = 0.0002895	0.0836 ± 0.0051	0.0937 ± 0.0057	0.105 ± 0.0064	0.117 ± 0.0071	0.13 ± 0.0079
x1 = 0.0003122	0.0872 ± 0.0053	0.0978 ± 0.006	0.109 ± 0.0067	0.122 ± 0.0075	0.136 ± 0.0083

C[N+](C)(CCCS(=O)(=O)O)C1CCCCC1.Cc1ccc(S(=O)(=O)[O-])cc1 + CO
viscosity [mPa·s], 101 kPa
Details	303.15 K	308.15 K	313.15 K	318.15 K	323.15 K	328.15 K
x1 = 0.01863	0.9656	0.8903	0.8173	0.7622	0.7053	0.6527
x1 = 0.04828	2.131	1.956	1.779	1.61	1.487	1.37
x1 = 0.1023	7.675	6.646	5.931	5.247	4.648	4.072
x1 = 0.2332	82.39	66.75	52.34	42.16	34.08	28.69
x1 = 1	113700	56930	32650	17830	10190	6293

CCCC[n+]1ccn(C)c1.[Br-] + N[C@@H](Cc1ccccc1)C(=O)O + O
viscosity [mPa·s], 101.3 kPa
Details	293.15 K	298.15 K	303.15 K	308.15 K	313.15 K
x2 = 0, x1 = 0.0007203	–	–	–	–	0.67 ± 0.1
x2 = 0.0003641, x1 = 0.00072	1 ± 0.1	0.97 ± 0.1	0.88 ± 0.1	0.77 ± 0.1	0.68 ± 0.1
x2 = 0.0003648, x1 = 0.001439	0.99 ± 0.1	0.9 ± 0.1	0.8 ± 0.1	0.66 ± 0.1	0.59 ± 0.1
x2 = 0.0007259, x1 = 0.0007198	1.02 ± 0.1	0.98 ± 0.1	0.89 ± 0.1	0.78 ± 0.1	0.69 ± 0.1
x2 = 0.0007309, x1 = 0.001438	1 ± 0.1	0.91 ± 0.1	0.81 ± 0.1	0.68 ± 0.1	0.6 ± 0.1
x2 = 0.001089, x1 = 0.0007195	1.03 ± 0.1	0.99 ± 0.1	0.91 ± 0.1	0.8 ± 0.1	0.7 ± 0.1
x2 = 0.001097, x1 = 0.001438	1.02 ± 0.1	0.92 ± 0.1	0.82 ± 0.1	0.69 ± 0.1	0.61 ± 0.1
x2 = 0.00145, x1 = 0.0007192	1.04 ± 0.1	1 ± 0.1	0.92 ± 0.1	0.81 ± 0.1	0.72 ± 0.1
x2 = 0.001463, x1 = 0.001437	1.03 ± 0.1	0.93 ± 0.1	0.83 ± 0.1	0.7 ± 0.1	0.63 ± 0.1
x2 = 0.001814, x1 = 0.000719	1.05 ± 0.1	1.02 ± 0.1	0.93 ± 0.1	0.82 ± 0.1	0.73 ± 0.1
x2 = 0.001827, x1 = 0.001437	1.04 ± 0.1	0.95 ± 0.1	0.85 ± 0.1	0.71 ± 0.1	0.64 ± 0.1
x2 = 0.002174, x1 = 0.0007187	1.07 ± 0.1	1.03 ± 0.1	0.95 ± 0.1	0.84 ± 0.1	0.74 ± 0.1
x2 = 0.002193, x1 = 0.001436	1.06 ± 0.1	0.96 ± 0.1	0.86 ± 0.1	0.73 ± 0.1	0.65 ± 0.1
x2 = 0.002537, x1 = 0.0007185	1.08 ± 0.1	1.04 ± 0.1	0.96 ± 0.1	0.85 ± 0.1	0.76 ± 0.1
x2 = 0.002556, x1 = 0.001436	1.07 ± 0.1	0.97 ± 0.1	0.87 ± 0.1	0.74 ± 0.1	0.67 ± 0.1
